Legend:
[1] = target: 5-HT2A receptor membrane preparations obtained from PSYLI2 cells (Homo sapiens, UniProt P28223); assay: Ligand binding kinetics with [3H]-LSD on PSYLI2 membrane preparations; details: kinetics of competition binding vs [3H]-LSD
Protocol: Ligand binding kinetics at the 5-HT2AR.
Data represent the mean ± SEM of 2–3 biological replicates.
Data represent the mean ± SEM of 2–4 biological replicates.
Binding buffer consisted of 50 mM Tris HCl, 10 mM MgCl2, 0.1 mM EDTA disodium dihydrate in autoclaved
deionized water. The solution was adjusted to pH 7.4 with 10 M NaOH(aq) and stored at 4 °C. This solution was used in
membrane preparation generation as well as competition and kinetics assays.
free, see 15) were grown in 15-cm plates with Dulbecco’s Modified Eagle Media (DMEM) containing 10% fetal bovine serum and 1% penicillin/streptomycin. When the cells were >90% confluent, the media was removed, and the cells were washed
with Dulbecco’s Phosphate Buffered Saline (DPBS) (15 mL). Next, DMEM (15 mL) lacking fetal bovine serum and
penicillin/streptomycin was added, and the cells were serum-starved for 4–12 hours. Roughly 10 mL of the DMEM was
removed, leaving ~5 mL of media in the plates before placing them on ice. Once on ice, the plates were scraped and the
contents were transferred to a pre-chilled 50 mL Falcon tube and then centrifuged (2,000 g, 10 min, 4 °C). The supernatant […]
of 0.25 mL to use for quantification of protein concentration via a Bradford assay with a Coomassie protein assay reagent. […]
For association binding experiments, total and nonspecific binding was determined by adding binding buffer (2.5X solution, […]

C57BL/6J mice = assay: Sucrose preference test (SPT) after chronic CORT; format: in vivo; details: after 20 d CORT 20 mg/kg IP; baseline 0.7980 ± 0.03533
Protocol: remained housed in groups of three for the remainder of the study. All rats were acclimated to the colony room for up to one week prior to dosing. During the period of acclimation, rats were examined and handled daily, and weighed to assure adequate health and suitability. The room temperature was maintained between 20 °C and 23 °C with a relative humidity of 30%–70%. Lab Rodent Diet 5001 (W.F. Fisher, Cat # 11015) and water were provided ad libitum. Animals were randomly assigned across treatment groups. All testing was performed during the light phase of the light/dark cycle. Behavioral testing was conducted according to established protocols approved by the IACUC committee and PGI Standard Operation Procedures (SOP). […] All animals were carefully monitored to ensure their safety in the swim test and any animal unable to maintain a posture with its nose above water was immediately removed from the water and not used further in the study. […] This test lasted for 5 min and was video recorded. A blinded experimenter manually scored the videos for swimming, climbing, and immobility behavior. Scoring of the forced swim test was performed by trained technicians using a time sampling technique in which the animal in the video recorded test was viewed every 5 seconds and the behavior observed was noted (e.g., immobile, swimming, or climbing). […]

[2] = test system: Thy1-EGFP mice, layer 2/3 of the mPFC; assay: In vivo spinogenesis after chronic corticosterone administration; details: chronic CORT (20 mg/kg IP daily, 20 d) + VEH; GH VEH 12.17 ± 0.5278; mean ± SEM
Protocol: In Vivo Spinogenesis after chronic corticosterone administration. Male and female Thy1-EGFP mice were given 1 week to acclimate to the new vivarium, then transferred to new cages (individually housed). Once individually housed, the mice were administered corticosterone (20 mg/kg; IP) in DMSO (2 mL/kg) or gently handled daily for 20 days. On day 21, mice were treated with VEH (saline) or (+)-JRT (1 mg/kg; IP). After 24 h, mice were anesthetized with isoflurane and transcardially perfused with paraformaldehyde (PFA, 4% in PBS, 7.4 pH). After extraction of the brains, samples were fixed in 4% PFA at 4° C overnight. The brains were cryo-protected by immersion in a 15% sucrose solution (15% sucrose in PBS w/v) overnight. Next, samples were placed in 30% sucrose solution (30% sucrose in PBS w/v) for at least 1 day. Samples were then embedded in optimal cutting temperature compound (OCT), sliced into 100 µm coronal sections using a cryostat, and mounted on slides which were left in the dark overnight to dry. Coverslips were mounted onto microscope slides using ProLong Gold. Slides were imaged on a Nikon HCA Spinning Disc confocal microscope equipped with a 100x/NA 1.45 oil objective. Images of dendrites and dendritic spines within layer 2/3 of the mPFC were captured and manually counted by a trained experimenter blinded to treatment conditions.

[3] = target: D1 (h) (antagonist radioligand); set-up: method as in ref Mefloquine and psychotomimetics share neurotransmitter receptor and transporter interactions in vitro; details: read-out: Ki of LSD; radioligand SCH 23390; Human cloned; ref Mefloquine and psychotomimetics share neurotransmitter receptor and transporter interactions in vitro; cited from earlier work
[4] = target: D2S (h) (antagonist radioligand); set-up: method as in ref Mefloquine and psychotomimetics share neurotransmitter receptor and transporter interactions in vitro; details: read-out: Ki of LSD; radioligand [3H]YM-09151-2; Human cloned; ref Mefloquine and psychotomimetics share neurotransmitter receptor and transporter interactions in vitro; cited from earlier work
[5] = target: 5-HT2B (h) (agonist radioligand); details: read-out: Ki of LSD; radioligand 5-HT; Human cloned; ref Pharmacological characterisation of the agonist radioligand binding site of 5-HT(2A), 5-HT(2B) and 5-HT(2C) receptors; cited from earlier work
[6] = target: 5-HT5a (h) (agonist radioligand); details: read-out: Ki of LSD, Rat cloned, ref Lysergamides of isomeric 2,4-dimethylazetidines map the binding orientation of the diethylamide moiety in the potent hallucinogenic agent N,N-diethyllysergamide (LSD); cited from earlier work
[7] = test system: E18 rat embryonic cortical neurons (DIV18-19); assay: Spinogenesis assay using cultured rat cortical neurons; format: cell-based; details: compound 1 μM
[8] = target: 5-HT7 (h) (agonist radioligand); set-up: method as in Molecular biology of 5-HT receptors; details: read-out: Ki of LSD; radioligand 5-HT; Rat cloned; ref Molecular biology of 5-HT receptors; cited from earlier work
[9] = target: alpha 1 (non-selective) (antagonist radioligand); set-up: method as in ref Receptor interaction profiles of novel N-2-methoxybenzyl (NBOMe) derivatives of 2,5-dimethoxy-substituted phenethylamines (2C drugs); details: read-out: Ki of LSD; radioligand prazosin; Human cloned; ref Receptor interaction profiles of novel N-2-methoxybenzyl (NBOMe) derivatives of 2,5-dimethoxy-substituted phenethylamines (2C drugs); cited from earlier work
[10] = target: 5-HT1B (h) (antagonist radioligand); set-up: method as in ref Pharmacological Differentiation and Characterization of 5-HT1A, 5-HT1B, and 5-HT1C Binding Sites in Rat Frontal Cortex; details: read-out: Ki of LSD; radioligand 5-HT; Rat cortex; ref Pharmacological Differentiation and Characterization of 5-HT1A, 5-HT1B, and 5-HT1C Binding Sites in Rat Frontal Cortex; cited from earlier work
[11] = target: beta 1 (h) (agonist radioligand); details: read-out: Ki of LSD; radioligand 125I-pindolol; Rat cloned; ref Lysergamides of isomeric 2,4-dimethylazetidines map the binding orientation of the diethylamide moiety in the potent hallucinogenic agent N,N-diethyllysergamide (LSD); cited from earlier work
[12] = target: alpha 2 (non-selective) (antagonist radioligand); set-up: method as in ref Receptor interaction profiles of novel N-2-methoxybenzyl (NBOMe) derivatives of 2,5-dimethoxy-substituted phenethylamines (2C drugs); details: read-out: Ki of LSD; radioligand Rauwolscine; Human cloned; ref Receptor interaction profiles of novel N-2-methoxybenzyl (NBOMe) derivatives of 2,5-dimethoxy-substituted phenethylamines (2C drugs); cited from earlier work

5-HT2A receptor membrane preparations obtained from PSYLI2 cells, sequence (P28223 1-263 limits assumed): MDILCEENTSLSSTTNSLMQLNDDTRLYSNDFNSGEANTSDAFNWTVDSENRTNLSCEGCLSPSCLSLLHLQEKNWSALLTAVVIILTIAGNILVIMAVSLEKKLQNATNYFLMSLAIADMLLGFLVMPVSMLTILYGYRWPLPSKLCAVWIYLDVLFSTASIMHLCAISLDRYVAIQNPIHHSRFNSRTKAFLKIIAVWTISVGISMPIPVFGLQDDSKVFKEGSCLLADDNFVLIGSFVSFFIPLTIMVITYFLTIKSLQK
5-HT2A receptor membrane preparations obtained from PSYLI2 cells, sequence (P28223 316-471 limits assumed): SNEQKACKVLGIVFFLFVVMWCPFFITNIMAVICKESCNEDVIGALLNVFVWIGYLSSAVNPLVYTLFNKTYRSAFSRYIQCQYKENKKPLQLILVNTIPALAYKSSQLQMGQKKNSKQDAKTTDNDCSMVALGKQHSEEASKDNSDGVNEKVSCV

CCN(CC)CCc1c[nH]c2cc(F)ccc12 [6-F-DET, 6-fluoro-N,N-diethyltryptamine, reference compound]
Dissociation rate from the 5-HT2A receptor, fold faster than LSD [1]: ~100 fold

C[C@]12C[C@H](O)[C@H]3[C@@H](CCC4=CC(=O)CC[C@@]43C)[C@@H]1CC[C@@H]2C(=O)CO [CORT, corticosterone, reference compound]
Sucrose preference post-CORT (Figure 6D) (C57BL/6J mice): 0.5563 ± 0.08424
Dendritic spine density, layer 2/3 mPFC (Table S1, matches Fig. 4N) [2]: 8.570 ± 0.4350

CCN(CC)C(=O)[C@@H]1C=C2c3cccc4[nH]cc(c34)C[C@H]2N(C)C1 [LSD, lysergic acid diethylamide]
Ki [3]: 273 nM
Ki [4]: 38 nM
Ki [5]: 0.977 nM
Ki [6]: 9 nM
Effect of ketanserin (10 μM) pretreatment on compound-induced dendritic spine density [7]: blocks
Ki [8]: 200 nM
Ki [9]: 670 nM
Ki [10]: 170 nM
Ki [11]: 140 nM
Ki [12]: 12 nM
